# Laboratory results as given in ChEMBL document CHEMBL4321794, “Discovery and Optimization of 2-Arylquinazolin-4-ones into a Potent and Selective Tankyrase Inhibitor Modulating Wnt Pathway Activity” (J Med Chem, 2019).
# What was measured:
# [1] = biological target: T1, Poly [ADP-ribose] polymerase 1 (Homo sapiens, UniProt P09874); assay: (§1) Inhibition of recombinant human full-length Myc/His-tagged Parp-1 expressed in baculovirus infected Sf21 insect cells assessed as reduction in auto-PARsylation using activated DNA as substrate incubated for 150 mins in presence of NAD and bio-NAD as co-substrate by TR-FRET assay
# T1 sequence (P09874 whole entry): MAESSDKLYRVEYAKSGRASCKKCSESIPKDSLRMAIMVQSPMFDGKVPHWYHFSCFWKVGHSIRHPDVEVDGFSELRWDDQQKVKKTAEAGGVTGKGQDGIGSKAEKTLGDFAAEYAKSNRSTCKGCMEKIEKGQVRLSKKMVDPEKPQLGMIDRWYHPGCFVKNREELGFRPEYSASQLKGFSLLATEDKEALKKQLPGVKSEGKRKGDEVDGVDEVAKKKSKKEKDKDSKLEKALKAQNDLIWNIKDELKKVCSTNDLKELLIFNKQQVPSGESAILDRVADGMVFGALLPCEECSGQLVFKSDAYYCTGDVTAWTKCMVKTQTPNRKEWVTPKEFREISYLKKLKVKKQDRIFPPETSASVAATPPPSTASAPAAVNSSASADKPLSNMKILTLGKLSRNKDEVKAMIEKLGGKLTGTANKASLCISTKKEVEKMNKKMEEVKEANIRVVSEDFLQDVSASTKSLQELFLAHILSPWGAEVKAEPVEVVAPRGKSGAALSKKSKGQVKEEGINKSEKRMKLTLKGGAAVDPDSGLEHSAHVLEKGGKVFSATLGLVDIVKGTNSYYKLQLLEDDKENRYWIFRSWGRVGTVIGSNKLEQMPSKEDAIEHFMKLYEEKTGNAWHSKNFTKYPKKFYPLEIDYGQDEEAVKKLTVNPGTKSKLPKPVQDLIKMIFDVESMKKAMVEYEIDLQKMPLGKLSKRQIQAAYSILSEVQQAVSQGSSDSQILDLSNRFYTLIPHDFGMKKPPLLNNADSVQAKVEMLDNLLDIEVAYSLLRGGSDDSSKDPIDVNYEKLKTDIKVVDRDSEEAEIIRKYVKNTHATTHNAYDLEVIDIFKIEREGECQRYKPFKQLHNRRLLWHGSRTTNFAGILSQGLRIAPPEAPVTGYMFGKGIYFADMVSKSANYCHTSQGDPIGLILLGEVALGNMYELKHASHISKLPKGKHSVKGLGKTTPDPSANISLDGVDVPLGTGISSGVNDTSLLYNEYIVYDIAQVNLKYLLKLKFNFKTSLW
# [2] = Intrinsic clearance in human liver microsomes assessed per mg protein in presence of NADPH by UPLC analysis; type: ADME, Microsome; conditions: read-out: CLH
# [3] = Intrinsic clearance in mouse liver microsomes assessed per mg protein in presence of NADPH by UPLC analysis; type: ADME, Microsome; conditions: read-out: CLH
# [4] = biological target: T2, Poly [ADP-ribose] polymerase tankyrase-1 (Homo sapiens, UniProt O95271); design: species or system Sf9
# T2 sequence (O95271 whole entry): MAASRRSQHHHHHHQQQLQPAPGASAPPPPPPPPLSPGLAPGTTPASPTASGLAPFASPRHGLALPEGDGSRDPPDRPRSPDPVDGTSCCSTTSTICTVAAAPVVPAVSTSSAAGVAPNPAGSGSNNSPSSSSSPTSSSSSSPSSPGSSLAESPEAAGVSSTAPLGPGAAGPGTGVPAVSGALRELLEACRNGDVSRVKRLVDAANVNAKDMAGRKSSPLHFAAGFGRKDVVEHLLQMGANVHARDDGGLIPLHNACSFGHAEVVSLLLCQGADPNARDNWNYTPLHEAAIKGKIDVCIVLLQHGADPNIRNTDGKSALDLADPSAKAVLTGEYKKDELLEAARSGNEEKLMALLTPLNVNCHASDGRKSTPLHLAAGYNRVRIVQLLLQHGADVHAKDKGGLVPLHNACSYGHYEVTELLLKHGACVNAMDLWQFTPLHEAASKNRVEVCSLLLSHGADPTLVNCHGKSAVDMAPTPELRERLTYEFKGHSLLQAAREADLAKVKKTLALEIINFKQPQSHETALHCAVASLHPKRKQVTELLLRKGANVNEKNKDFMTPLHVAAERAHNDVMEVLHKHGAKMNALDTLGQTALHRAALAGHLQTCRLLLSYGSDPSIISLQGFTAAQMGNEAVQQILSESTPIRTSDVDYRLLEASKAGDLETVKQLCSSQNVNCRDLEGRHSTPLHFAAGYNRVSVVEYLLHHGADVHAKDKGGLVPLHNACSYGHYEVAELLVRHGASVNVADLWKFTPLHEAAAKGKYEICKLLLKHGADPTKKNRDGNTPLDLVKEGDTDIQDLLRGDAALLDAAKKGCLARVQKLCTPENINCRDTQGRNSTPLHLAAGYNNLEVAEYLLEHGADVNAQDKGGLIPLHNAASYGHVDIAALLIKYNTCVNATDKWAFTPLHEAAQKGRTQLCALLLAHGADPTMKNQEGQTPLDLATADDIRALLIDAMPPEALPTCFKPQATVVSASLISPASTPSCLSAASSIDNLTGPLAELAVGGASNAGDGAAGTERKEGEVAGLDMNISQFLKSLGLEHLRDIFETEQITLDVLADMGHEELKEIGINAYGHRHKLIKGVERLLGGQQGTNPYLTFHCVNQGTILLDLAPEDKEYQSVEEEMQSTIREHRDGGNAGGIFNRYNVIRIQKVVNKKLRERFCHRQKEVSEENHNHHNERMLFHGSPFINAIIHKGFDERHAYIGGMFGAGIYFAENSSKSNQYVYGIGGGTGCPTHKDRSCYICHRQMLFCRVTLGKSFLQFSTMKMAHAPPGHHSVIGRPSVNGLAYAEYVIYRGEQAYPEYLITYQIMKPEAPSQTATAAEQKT
# [5] = Thermodynamic solubility in phosphate buffer at pH 7.4 at 2 mg incubated under shaking condition for 6 hrs followed by rechecking and readjusting pH to 7.4 and further incubated for 18 hrs by HPLC/UV detection method; type: physicochemical; conditions: read-out: Therm_solubility
# [6] = biological target: T3, Poly [ADP-ribose] polymerase tankyrase-2 (Homo sapiens, UniProt Q9H2K2); assay: biochemical
# T3 sequence (Q9H2K2 whole entry): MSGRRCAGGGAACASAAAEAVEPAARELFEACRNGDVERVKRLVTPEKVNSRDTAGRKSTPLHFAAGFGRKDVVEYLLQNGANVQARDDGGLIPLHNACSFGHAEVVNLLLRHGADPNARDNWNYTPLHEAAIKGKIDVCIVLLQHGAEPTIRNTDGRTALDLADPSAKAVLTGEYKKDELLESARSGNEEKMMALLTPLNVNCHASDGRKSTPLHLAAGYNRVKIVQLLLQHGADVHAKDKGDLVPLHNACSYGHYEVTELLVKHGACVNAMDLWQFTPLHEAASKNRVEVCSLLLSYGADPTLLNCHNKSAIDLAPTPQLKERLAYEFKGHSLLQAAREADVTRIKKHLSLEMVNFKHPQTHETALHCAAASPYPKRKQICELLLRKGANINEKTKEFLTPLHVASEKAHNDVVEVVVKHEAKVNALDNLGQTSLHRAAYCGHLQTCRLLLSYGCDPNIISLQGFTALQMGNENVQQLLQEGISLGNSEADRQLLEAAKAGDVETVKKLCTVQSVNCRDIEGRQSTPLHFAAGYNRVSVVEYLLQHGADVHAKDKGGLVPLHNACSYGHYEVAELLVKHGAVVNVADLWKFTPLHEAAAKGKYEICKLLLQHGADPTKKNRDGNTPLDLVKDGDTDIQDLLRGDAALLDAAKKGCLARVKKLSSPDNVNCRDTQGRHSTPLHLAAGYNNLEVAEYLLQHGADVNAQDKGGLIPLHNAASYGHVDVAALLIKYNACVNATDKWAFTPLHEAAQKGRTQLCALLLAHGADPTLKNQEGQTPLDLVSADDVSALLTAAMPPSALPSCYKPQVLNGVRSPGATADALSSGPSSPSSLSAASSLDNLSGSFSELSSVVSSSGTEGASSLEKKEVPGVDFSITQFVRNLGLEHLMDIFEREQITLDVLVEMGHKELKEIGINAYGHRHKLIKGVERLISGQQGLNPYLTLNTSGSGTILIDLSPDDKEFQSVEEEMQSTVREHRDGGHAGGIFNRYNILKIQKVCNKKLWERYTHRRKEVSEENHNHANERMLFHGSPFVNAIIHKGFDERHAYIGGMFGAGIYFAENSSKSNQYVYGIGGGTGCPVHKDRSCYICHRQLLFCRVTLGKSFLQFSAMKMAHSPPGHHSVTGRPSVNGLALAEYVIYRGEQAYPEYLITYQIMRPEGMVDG
# Description: Inhibition of GST tagged-TEV cleavage site-fused human recombinant TNKS2 (873 to 1166 residues) expressed in baculovirus infected sf9 cells assessed as reduction in auto-PARsylation incubated for 60 mins in presence of bio-NAD as co-substrate by ELISA
# Tankyrase 1/2 = biological target: T4, Tankyrase 1/2 (Homo sapiens, UniProt Q9H2K2+O95271)
# T4 sequence (Q9H2K2 whole entry): T3 sequence (Q9H2K2 whole entry)
# T4 sequence (O95271 whole entry): T2 sequence (O95271 whole entry)
# Description: Inhibition of tankyrase 1/2 in human DLD1 cells assessed as increase in axin2 accumulation incubated for 24 hrs by luminex based bead assay
# [7] = biological target: T1, Poly [ADP-ribose] polymerase 1; assay: as §1, with “auto-PARsylation at 10 uM” for “auto-PARsylation”, “assay relative to control” for “assay”
# [8] = biological target: T3, Poly [ADP-ribose] polymerase tankyrase-2; assay: biochemical; remark: listed apart in the source
# Description: Inhibition of GST tagged-TEV cleavage site-fused human recombinant TNKS2 (873 to 1166 residues) expressed in baculovirus infected Sf9 cells assessed as reduction in auto-PARsylation incubated for 90 mins in presence of bio-NAD as co-substrate by TR-FRET assay
# [9] = biological target: T2, Poly [ADP-ribose] polymerase tankyrase-1; assay: biochemical
# Description: Inhibition of GST tagged-TEV cleavage site-fused human recombinant TNKS1 (1023 to 1327 residues) expressed in baculovirus infected Sf9 cells assessed as reduction in auto-PARsylation incubated for 90 mins in presence of bio-NAD as co-substrate by TR-FRET assay
Structure (SMILES),IC50 [1] [nM],microsomal CLint [2] [µL/min/mg],microsomal CLint [3] [µL/min/mg],IC50 [4] [nM],solubility thermodynamic at 24 h [5] [µg/mL],IC50 [6] [nM],EC50 (Tankyrase 1/2) [nM],inhibition [7] [%],IC50 [8] [nM],IC50 [9] [nM]
CC(C)(O)c1ccc(-c2nc3c(F)ccc(F)c3c(=O)[nH]2)cc1,1300,< 10,< 10,26,5,,,,,
CC(C)(O)c1ccc(-c2nc3ccccc3c(=O)[nH]2)cc1,910,15,46,15,38,13,1300,,,
Cc1cc(F)cc2c(=O)[nH]c(-c3ccc(C4CCN(C)CC4)cc3)nc12,620,< 10,422,2.2,5,2.2,50,,,
COc1ccc(-c2nc3ccccc3c(=O)[nH]2)cc1,,217,630,,4,,,,,
Cl.O=c1[nH]c(-c2ccc(C3CCNCC3)cc2)nc2c(F)cc(F)cc12,,< 10,< 10,15,57,,,,,
CC(C)(O)c1ccc(-c2nc3ccc(F)c(F)c3c(=O)[nH]2)cc1,512,< 10,23,7,25,,,,,
CC(C)(C)c1ccc(-c2nc3ccccc3c(=O)[nH]2)cc1,> 10000,19,< 10,7.9,< 1,8.7,1500,35,,
CC(C)(O)c1ccc(-c2nc3ccc(F)cc3c(=O)[nH]2)cc1,349,< 10,25,12.5,29,,,,,
CC(C)(O)c1ccc(-c2nc3cccc(Cl)c3c(=O)[nH]2)cc1,4300,,,35,,,,,,
COCCOC(C)(C)c1ccc(-c2nc3ccc(F)cc3c(=O)[nH]2)cc1,5700,41,126,24,6,,,,,
CC(C)(O)c1ccc(-c2nc3ccc(Cl)cc3c(=O)[nH]2)cc1,1400,,,23,,,,,,
COc1cccc2c(=O)[nH]c(-c3ccc(C(C)(C)O)cc3)nc12,630,12,45,35,153,,,,,
Cc1cc(F)cc2c(=O)[nH]c(-c3ccc(N4CCN(C)CC4)cc3)nc12,120,14,138,1.5,4,,,,,
CN1CCN(c2ccc(-c3nc4ccc(F)cc4c(=O)[nH]3)cc2)CC1,370,< 10,44,12,6,,,,,
CC(C)(C)c1ccc(-c2nc3ccc(F)cc3c(=O)[nH]2)cc1,3900,70,> 1000,3.3,< 1,,,,,
CC(C)(OCCO)c1ccc(-c2nc3ccc(F)cc3c(=O)[nH]2)cc1,2300,< 10,32,10,23,,,,,
CC(C)(O)c1ccc(-c2nc3cccc(F)c3c(=O)[nH]2)cc1,830,< 10,11,17,20,,,,,
Cc1cc(F)cc2c(=O)[nH]c(-c3ccc(C(C)(C)OCCO)cc3)nc12,790,37,180,1.6,,,,,,
CC(C)(O)c1ccc(-c2nc3c(Cl)cccc3c(=O)[nH]2)cc1,410,23,49,11,,,,,,
CC(C)(O)c1ccc(-c2nc3c(F)cccc3c(=O)[nH]2)cc1,1100,< 10,26,14,15,,,,,
Cc1cc(F)cc2c(=O)[nH]c(-c3ccc(C(C)(C)O)cc3)nc12,60,< 10,180,0.8,1,,,,,
O=c1[nH]c(-c2ccc3c(c2)OCO3)nc2ccccc12,1700,83,346,,1,,> 30000,,620,430
CN1CCC(c2ccc(-c3nc4c(F)cc(F)cc4c(=O)[nH]3)cc2)CC1.O=C(O)C(F)(F)F,3700,< 10,39,31,65,31,3900,,,
Cc1cccc2c(=O)[nH]c(-c3ccc(C(C)(C)O)cc3)nc12,79,< 10,81,1.2,4,,,,,
CC(C)(O)c1ccc(-c2nc3ccc(F)cc3c(=O)[nH]2)nc1,2500,15,< 10,1000,,,,,,
